Reference: patent US20020076412A1, “METHODS FOR MODULATING THE IMMUNE SYSTEM” (priority 1987, published 2002)
Values joined by “and” are separate entries in the source; they are usually repeats but may differ in a detail not shown here. Equal entries are not always repeated.

B1: IFN-γ: cytokine administered in a pilot study to alleviate symptoms of MS (protein, UniProt P01579 24-161, looked up)
Interferon gamma: QDPYVKEAENLKKYFNAGHSDVADNGTLFLGILKNWKEESDRKIMQSQIVSFYFKLFKNFKDDQSIQKSVETIKEDMNVKFFNSNKKKRDDFEKLTNYSVTDLNVQRKAIHELIQVMAELSPAAKTGKRKRSQMLFRG

Tests used:
MS patients = conditions: cited from earlier work
EAE = assay: Competition with Ala6 and Ala5 for prevention of EAE with MBP (Table 3); format: in vivo, mice; conditions: peptide alone 0.2 mg in CFA; number with clinical EAE/number immunized; listed as Native MBP Peptide
Procedure: Incidence of EAE was expressed as number of mice with clinical EAE/number of mice immunized. For the induction of EAE, MBP peptide was dissolved in phosphate buffered saline (PBS) and emulsified with complete Freund's adjuvant (CFA) in a 1:1 mixture of PBS and CFA. Mice were injected with 0.2 ml emulsion at the base of the tail. On the same day and 48 h later, pertussis toxin (List Chemicals, Campbell, Calif.) was injected intravenously. Mice were examined daily for signs of EAE. For prevention of EAE, animals were immunized with MBP (0.2 mg), or in a mixture with the competitor peptide (1 mg).

EAE (RAT) [1] = assay: Ability of peptide mixed in CFA to cause EAE; format: in vivo; conditions: rats with EAE / rats immunized with the peptide alone in CFA
Procedure: (§1) The peptides were tested for their ability to cause EAE when mixed in CFA. […] It was seen that Ala4, Ala6, Ala7, and Ala8 are poor binders to I-E, implying that these residues 4F,6N,7I, and 8V are critical in MHC binding. […] Despite their inability to bind well to I-E, peptides ala6 and ala8 block the development of EAE when mixed with native peptide in a 5:1 molar ratio with CFA (0/6 sick with native plus ala6, 2/6 with native plus ala8, compared to 11/12 with native peptide alone). These competitor peptides Ala6 and Ala8, though poor I-E binders can apparently compete with native peptide and antagonize the T-cell receptor.

87-99 T-cell line [2] = assay: Competition assay for T-cell proliferation with native peptide; format: cell-based, Lewis rat; conditions: blocking of proliferation of 87-99 T-cell line when given with native peptide in vitro
Procedure: The second assay is a competition assay for T-cell proliferation. In this assay, antigen presenting spleen cells are first irradiated and then incubated with native MBP peptide for 2-4 hours. These cells are then washed and further cultured with T-cells reactive to MBP. Various concentrations of candidate peptide analogues are included in cultures for an additional 3 days. Following this incubation period, each culture is pulsed with 1 μCi of [^3H]-thymidine for an additional 12-18 hours. Cultures are then harvested on fiberglass filters and counted as above. Mean CPM and standard error of the mean are calculated from data determined in triplicate cultures. Peptide analogues which inhibit proliferation to approximately 25% at a concentration of 50 μM or greater are suitable for further screening.
(§2) Proliferation Assay: Proliferative responses were determined as described previously (Zamvil, et al., Nature 317:355, 1985). 1×10^4 T-cells were cultured with 5×10^5 X-irradiated (3,000 rad) PL/J splenic APC in 0.2 ml of culture media in 96 well flat-bottomed microtiter plates (Falcon, 3072). Peptides were added to culture giving the final concentrations indicated. At 48 hours incubation, each well was pulsed with 1 μCi ^3H-thymidine and harvested 16 hours later. The mean c.p.m. thymidine incorporation was calculated for triplicate cultures. Standard deviations from replicate cultures were within 10% mean value. Proliferation assays were performed in 96-well microtiter plates. Briefly, 2×10^4 T-cells and 10^6 irradiated thymocytes/well were incubated with stimulation medium only, Con A, or antigen. The cultures were harvested onto glass fiber filters and TdR uptake was assessed by liquid scintillation. Mean cpm were calculated from triplicate wells. In some experiments, competitor peptides, or anti I-A (OX-6) or anti-I-E antibodies (OX-17) were used to evaluate which MHC molecules were used to restrict the T-cell response, or to determine whether peptides could antagonize stimulation by the native peptide.
as §1

I-E = assay: MHC I-E binding of substituted MBP 87-99 peptides; design: species or system rat; conditions: for IC50: read-out: (M*C) IC50 I-E Binding
Excerpt: A set of substituted peptides based on the sequence VHFFKNIVTPRT (Seq. ID No. 39), which is identical in rats, mice and human myelin basic protein (MBP), and corresponds to the I-E restricted epitope MBP 87-99 in the rat was produced. The peptides are shown in Table 1 (Seq. ID Nos. 39 to 52 respectively) MHC binding was measure say described in Smilek et al, 1991, Gautam et al 1992a&b.

EAE (RAT) [3] = assay: Prevention of EAE, competitor mixed with native peptide 5:1 in CFA; format: in vivo; conditions: sick/total; competitor plus native peptide 5:1 molar ratio in CFA; native line = native peptide alone
Procedure: as §1

CTL = CTL assay with substituted peptides; format: cell-based
87-99 T-cell line [4] = assay: Proliferation of encephalitogenic T-cell line raised against native peptide (87-99); format: cell-based, rat; conditions: stimulation of T-cell line raised against native 87-99; grades negative to 4+, key not given
Procedure: As noted above, candidate peptide analogues are first tested for their property of causing or inhibiting proliferation of T-cell lines. In the proliferation assay, MBP reactive T-cell lines may be used as target cells. T-cell lines are established from lymph nodes taken from rats injected with MBP. Lymph node cells are isolated and cultured for 5 to 8 days with MBP and IL-2 as a source of T-cell growth factors. Viable cells are recovered and a second round of stimulation is performed with MBP and irradiated splenocytes as a source of growth factors. After 5 to 6 passages in this manner, the proliferative potential of the cell lines are determined. MBP-reactive lines are used in the proliferation assay. In this assay, T-cell lines are cultured for three days with various concentrations of peptide analogues and irradiated, autologous splenocytes. After three days, 0.5-1.0 μCi of [^3H]-thymidine is added for 12-16 hours. Cultures are harvested and incorporated counts determined. Mean CPM and standard error of the mean are calculated from triplicate cultures.
Development of MBP-specific T-cell lines in the rat: T-cell lines are selected from LN or SC (spinal cords) of rats immunized with guinea pig myelin basic protein or with MBP peptide (200 μg) in CFA. Supernatants from ConA-stimulated Lewis rat splenocytes are used as the source of IL-2 to expand Ag-stimulated T-cells.
as §2

Row | Molecule | specific response to MBP (MS patients; in vivo) | Incidence of EAE (EAE) | EAE (RAT) (EAE (RAT) [1]) | Comp Assay Prolif (RAT) (87-99 T-cell line [2]) | IC50 (I-E) [µM] | EAE (RAT) (EAE (RAT) [3]) | CTL (CTL) | binding to I-E / MHC (in words) (I-E) | EAE (RAT) (EAE (RAT) [1]; listed as Ala8) | Comp Assay Prolif (RAT) (87-99 T-cell line [2]; listed as Ala8) | Prolif. (87-99 T-cell line [4]) | patients with clinical exacerbation (MS patients; within one month after initiation of treatment)
1 | IFN-γ: cytokine administered in a pilot study to alleviate symptoms of MS | increase | – | – | – | – | – | – | – | – | – | – | –
2 | CC[C@H](C)[C@H](NC(=O)[C@H](CC(N)=O)NC(=O)[C@H](CCCCN)NC(=O)[C@H](Cc1ccccc1)NC(=O)[C@H](Cc1ccccc1)NC(=O)[C@H](Cc1c[nH]cn1)NC(=O)[C@@H](N)C(C)C)C(=O)N[C@H](C(=O)N[C@H](C(=O)N1CCC[C@H]1C(=O)N[C@@H](CCCNC(=N)N)C(=O)N[C@H](C(=O)N1CCC[C@H]1C(=O)O)[C@@H](C)O)[C@@H](C)O)C(C)C [native, reference compound] | – | 11/12 and 6/6 | 21/21 | MINUS | 14 | 11/12 | nega- | – | – | – | – | –
3 | CC(C)[C@H](N)C(=O)N[C@@H](Cc1c[nH]cn1)C(=O)N[C@@H](Cc1ccccc1)C(=O)N[C@@H](Cc1ccccc1)C(=O)N[C@@H](CCCCN)C(=O)N[C@@H](CC(N)=O)C(=O)N[C@@H](C)C(=O)N[C@H](C(=O)N[C@H](C(=O)N1CCC[C@H]1C(=O)N[C@@H](CCCNC(=N)N)C(=O)N[C@H](C(=O)N1CCC[C@H]1C(=O)O)[C@@H](C)O)[C@@H](C)O)C(C)C [Ala 7] | – | – | 6/6 | – | > 200 | – | plus | poor binders | – | – | – | –
4 | CC[C@H](C)[C@H](NC(=O)[C@H](CC(N)=O)NC(=O)[C@H](CCCCN)NC(=O)[C@H](Cc1ccccc1)NC(=O)[C@H](Cc1ccccc1)NC(=O)[C@H](Cc1c[nH]cn1)NC(=O)[C@@H](N)C(C)C)C(=O)N[C@@H](C)C(=O)N[C@H](C(=O)N1CCC[C@H]1C(=O)N[C@@H](CCCNC(=N)N)C(=O)N[C@H](C(=O)N1CCC[C@H]1C(=O)O)[C@@H](C)O)[C@@H](C)O [Ala 8] | – | – | 1/15 | plus | > 200 | 2/6 | plus | poor binders | incapable of causing EAE | can block proliferation | weakly stimulate | –
5 | B1 | – | – | – | – | – | – | – | – | – | – | – | 7 of 18
